{"source": "patent US11877993B1", "about": "“Gamma-hydroxybutyrate salts for the treatment of psychological disorders” (priority 2021, dated 2024)", "origin": "cited, not measured here", "system": "patients with severe PTSD", "settings": "MDMA-assisted therapy"}
{"compound": "CNC(C)Cc1ccc2c(c1)OCO2", "note": "(stereo not drawn) [MDMA, 3,4-methylenedioxymethamphetamine]", "values": [{"measurement": "Tolerability", "setting": "individuals with severe PTSD, even with comorbidities", "result": "well-tolerated"}, {"measurement": "Attenuation in CAPS-5 score compared with placebo, effect size d", "setting": "severe PTSD, P<0.0001", "result": 0.91}, {"measurement": "Decrease of SDS total score, effect size d", "setting": "severe PTSD, P=0.0116", "result": 0.43}]}
